Test results published in the NIST ThermoML archive (doi:10.1021/acs.jced.7b00494).
± gives the expanded uncertainty stated by the source.

Test: mn = molality of the nth substance listed, in mol/kg
Details: 99.6 kPa, Liquid; for mass density: Vibrating tube method; for kinematic viscosity: Capillary tube (Ostwald / Ubbelohde) method

CNC(C)=O [N-methylacetamide] + [Ca+2].[Cl-].[Cl-]
Details | kinematic viscosity, 323.15 K [m2/s] | kinematic viscosity, 328.15 K [m2/s] | mass density, 318.15 K [kg/m3] | mass density, 323.15 K [kg/m3] | mass density, 328.15 K [kg/m3]
m2 = 0 | 2.68e-06 ± 3.3e-08 | 2.42e-06 ± 3e-08 | 937.44 ± 1.9 | 933.24 ± 1.9 | 929.07 ± 1.9
m2 = 0.00398 | 2.69e-06 ± 3.3e-08 | 2.44e-06 ± 3e-08 | 937.73 ± 1.9 | 933.54 ± 1.9 | 929.34 ± 1.9
m2 = 0.01042 | 2.72e-06 ± 3.4e-08 | 2.46e-06 ± 3e-08 | 938.2 ± 1.9 | 933.97 ± 1.9 | 929.79 ± 1.9
m2 = 0.04232 | 2.86e-06 ± 3.5e-08 | 2.58e-06 ± 3.2e-08 | 940.39 ± 1.9 | 936.24 ± 1.9 | 932.07 ± 1.9
m2 = 0.05605 | 2.92e-06 ± 3.6e-08 | 2.63e-06 ± 3.2e-08 | 941.34 ± 1.9 | 937.18 ± 1.9 | 933.03 ± 1.9
m2 = 0.08536 | 3.05e-06 ± 3.7e-08 | 2.74e-06 ± 3.4e-08 | 943.45 ± 1.9 | 939.13 ± 1.9 | 934.99 ± 1.9
m2 = 0.1022 | 3.13e-06 ± 3.9e-08 | 2.81e-06 ± 3.5e-08 | 944.7 ± 1.9 | 940.52 ± 1.9 | 936.21 ± 1.9
m2 = 0.1314 | 3.28e-06 ± 4e-08 | 2.95e-06 ± 3.6e-08 | 946.62 ± 1.9 | 942.51 ± 1.9 | 938.24 ± 1.9
m2 = 0.1539 | 3.39e-06 ± 4.2e-08 | 3.05e-06 ± 3.8e-08 | 948.18 ± 1.9 | 943.99 ± 1.9 | 939.85 ± 1.9
m2 = 0.1613 | 3.43e-06 ± 4.2e-08 | 3.09e-06 ± 3.8e-08 | 948.73 ± 1.9 | 944.54 ± 1.9 | 940.37 ± 1.9
m2 = 0.1719 | 3.48e-06 ± 4.3e-08 | 3.13e-06 ± 3.9e-08 | 949.44 ± 1.9 | 945.4 ± 1.9 | 941.17 ± 1.9
m2 = 0.1998 | 3.64e-06 ± 4.5e-08 | 3.27e-06 ± 4e-08 | 951.58 ± 1.9 | 947.31 ± 1.9 | 943.19 ± 1.9
m2 = 0.2219 | 3.77e-06 ± 4.6e-08 | 3.39e-06 ± 4.2e-08 | 953.04 ± 1.9 | 948.77 ± 1.9 | 944.71 ± 1.9
m2 = 0.2578 | 4e-06 ± 4.9e-08 | 3.58e-06 ± 4.4e-08 | 955.68 ± 1.9 | 951.4 ± 1.9 | 947.13 ± 1.9
m2 = 0.3546 | 4.71e-06 ± 5.8e-08 | 4.2e-06 ± 5.2e-08 | 962.4 ± 1.9 | 958.22 ± 1.9 | 953.99 ± 1.9
